Laboratory results taken from ChEMBL document CHEMBL4673385, “Discovery of Potent Inhibitors of Streptococcus mutans Biofilm with Antivirulence Activity” (ACS Med Chem Lett, 2021).
In brackets after ≈: the same amount, converted by molar mass. Activity calls are given as the source filed them. No rule for the calls is given here.

Key:
Streptococcus mutans [1] = assay: Antibiofilm activity against Streptococcus mutans UA159 assessed as inhibition of biofilm formation by serial dilution method; assay type: functional, organism-based
[2] = Solubility of compound in water; assay type: physicochemical
Streptococcus mutans [3] = assay: Bactericidal activity against Streptococcus mutans UA159 assessed as reduction in bacterial growth at 100 uM after 24 hrs; assay type: functional, organism-based
[4] = Streptococcus mutans, UA159, read-out: IC50

Structure (SMILES)	IC50 (Streptococcus mutans [1]; [4]) [µM]	solubility ([2]; water, read-out: solubility) [µg/mL]	Activity (Streptococcus mutans [3])	IC50 (Streptococcus mutans [1])	solubility ([2]; buffer)
COC(=O)c1cccc(NC(=O)c2cccc3ccccc23)c1	> 300	< 5	inactive	–	–
COC(=O)c1ccccc1NC(=O)c1cccc2ccccc12	> 300	5 (≈ 16.4 µM)	inactive	–	–
COC(=O)c1ccccc1NC(=O)c1cnc2ccccc2c1	142	< 5	inactive	–	–
COc1ccc2[nH]c(C(=O)Nc3ccccc3C(N)=O)cc2c1	> 300	10 (≈ 32.3 µM)	inactive	–	–
COC(=O)c1ccccc1NC(=O)c1ccc2ccccc2n1	89.5	< 5	inactive	–	–
COC(=O)c1cccc(NC(=O)c2cc3cc([N+](=O)[O-])ccc3[nH]2)c1	–	–	inactive	Nd(Insoluble)	Insoluble
O=C(Nc1ccccc1)c1cnc2ccccc2c1	> 300	5 (≈ 20.1 µM)	inactive	–	–
COC(=O)c1cccc(NC(=O)c2cc3cc(OC)ccc3[nH]2)c1	–	–	inactive	Nd(Insoluble)	Insoluble
CC(C)(C)OC(=O)NCc1ccccc1NC(=O)c1cc2cc([N+](=O)[O-])ccc2o1	26.8	25 (≈ 60.8 µM)	inactive	–	–
NC(=O)c1cccc(NC(=O)c2cc3cc([N+](=O)[O-])ccc3o2)c1	38.8	20 (≈ 61.5 µM)	inactive	–	–
COc1ccc2[nH]c(C(=O)Nc3ccccc3)cc2c1	–	–	inactive	Nd(Insoluble)	Insoluble
COC(=O)c1cccc(NC(=O)c2cc3cc([N+](=O)[O-])ccc3o2)c1	2.7	25 (≈ 73.5 µM)	inactive	–	–
CC(C)(C)OC(=O)NCc1ccccc1NC(=O)c1cccc2ccccc12	196	5 (≈ 13.3 µM)	inactive	–	–
NC(=O)c1ccccc1NC(=O)c1ccc2ccccc2c1	84.1	25 (≈ 86.1 µM)	inactive	–	–
NC(=O)c1ccc(NC(=O)c2ccc(-c3ccccc3)cc2)cc1	> 300	< 5	inactive	–	–
COC(=O)c1ccc(NC(=O)c2cnc3ccccc3c2)cc1	92.3	< 5	inactive	–	–
COC(=O)c1ccc(NC(=O)c2cc3ccccc3s2)cc1	41.2	20 (≈ 64.2 µM)	inactive	–	–
COC(=O)c1ccccc1NC(=O)c1cc2cc([N+](=O)[O-])ccc2[nH]1	–	–	inactive	Nd(Insoluble)	Insoluble
O=C(Nc1ccccc1)c1ccc2ccccc2n1	> 300	25 (≈ 101 µM)	inactive	–	–
O=C(Nc1ccccc1)c1cc2cc([N+](=O)[O-])ccc2s1	> 300	10 (≈ 33.5 µM)	inactive	–	–
CC(C)(C)OC(=O)NCc1ccccc1NC(=O)c1cc2cc([N+](=O)[O-])ccc2[nH]1	–	–	inactive	Nd(Insoluble)	Insoluble
COc1ccc2[nH]c(C(=O)Nc3ccccc3CNC(=O)OC(C)(C)C)cc2c1	–	–	inactive	Nd(Insoluble)	Insoluble
NC(=O)c1ccc(NC(=O)c2cc3cc([N+](=O)[O-])ccc3[nH]2)cc1	–	–	inactive	Nd(Insoluble)	Insoluble
CC(C)(C)OC(=O)NCc1ccccc1NC(=O)c1cc2ccccc2s1	43.4	20 (≈ 52.3 µM)	inactive	–	–
NC(=O)c1cccc(NC(=O)c2cc3cc([N+](=O)[O-])ccc3[nH]2)c1	–	–	inactive	Nd(Insoluble)	Insoluble
COc1ccc2[nH]c(C(=O)Nc3ccccc3CN)cc2c1	–	–	inactive	Nd(Insoluble)	Insoluble
NC(=O)c1ccc(NC(=O)c2ccc3ccccc3c2)cc1	110	< 5	inactive	–	–
